Measured values reported in the supplement of paper PMC11061612.

Columns and labels:
[1] = tested on: TOV-112D (Ovarian Carcinoma); test: combination Emax (second highest fraction inhibited in the dose matrix, 72 h); higher = more inhibition; extreme values may be limits of the assay
Procedure, shortened: (§1)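 Cell lines grown in DMEM/F12 or RPMI with 10% FBS were plated in 1536-well plates and held 24 hours at 37°C, 5% CO2 before 72 hours of exposure to two-drug dose matrices, with DMSO typically at 0.2%. CellTiter-Glo 2.0 luminescence gave viability, which was converted to inhibition. Vehicle wells were set to 0 and blank wells to 1. Combination Emax is the second-highest inhibition in the matrix, and Bliss excess is the observed combination effect minus the expected EA + EB − EA·EB, where EA and EB are the single-agent effects.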

[2] = tested on: HDQ-P1 (Breast Carcinoma); test: as above
Procedure, shortened: as §1

[3] = tested on: DiFi (Colorectal Carcinoma); test: as above
Procedure, shortened: as §1

[4] = tested on: MS751 (Cervical Carcinoma); test: as above
Procedure, shortened: as §1

[5] = tested on: KCL-22 (Chronic Myelogenous Leukemia); test: as above
Procedure, shortened: as §1

[6] = tested on: KM12 (Colorectal Carcinoma); test: as above
Procedure, shortened: as §1

[7] = tested on: TE-6 (Esophageal Squamous Cell Carcinoma); test: as above
Procedure, shortened: as §1

[8] = tested on: MFM-223 (Breast Carcinoma); test: as above
Procedure, shortened: as §1

TC-71 (Ewing's Sarcoma) [9] = test: as above
Procedure, shortened: as §1

U251 (Low Grade Glioma) [10] = test: as above
Procedure, shortened: as §1

[11] = tested on: KYSE-180 (Esophageal Squamous Cell Carcinoma); test: as above
Procedure, shortened: as §1

CHP-212 (Neuroblastoma) [12] = test: as above
Procedure, shortened: as §1

[13] = tested on: MOLT-16 (T-Lymphoblastic Leukemia); test: as above
Procedure, shortened: as §1

[14] = tested on: EVSA-T (Breast Carcinoma); test: as above
Procedure, shortened: as §1

[15] = tested on: SU-DHL-8 (B-Cell Non-Hodgkin's Lymphoma); test: as above
Procedure, shortened: as §1

[16] = tested on: COLO-678 (Colorectal Carcinoma); test: as above
Procedure, shortened: as §1

[17] = tested on: P12-ICHIKAWA (T-Lymphoblastic Leukemia); test: as above
Procedure, shortened: as §1

[18] = tested on: HL-60 (Acute Myeloid Leukemia); test: as above
Procedure, shortened: as §1

MEL-JUSO (Melanoma) [19] = test: as above
Procedure, shortened: as §1

[20] = tested on: PANC-08-13 (Pancreatic Carcinoma); test: as above
Procedure, shortened: as §1

LN-18 (Glioblastoma) [21] = test: as above
Procedure, shortened: as §1

[22] = tested on: KARPAS-45 (T-Lymphoblastic Leukemia); test: as above
Procedure, shortened: as §1

[23] = tested on: TOV-112D (Ovarian Carcinoma); test: Bliss excess, mean over the matrix (fraction); higher = more synergy
Procedure, shortened: as §1

[24] = tested on: HDQ-P1 (Breast Carcinoma); test: as above
Procedure, shortened: as §1

[25] = tested on: DiFi (Colorectal Carcinoma); test: as above
Procedure, shortened: as §1

[26] = tested on: MS751 (Cervical Carcinoma); test: as above
Procedure, shortened: as §1

[27] = tested on: KCL-22 (Chronic Myelogenous Leukemia); test: as above
Procedure, shortened: as §1

[28] = tested on: KM12 (Colorectal Carcinoma); test: as above
Procedure, shortened: as §1

[29] = tested on: TE-6 (Esophageal Squamous Cell Carcinoma); test: as above
Procedure, shortened: as §1

[30] = tested on: MFM-223 (Breast Carcinoma); test: as above
Procedure, shortened: as §1

TC-71 (Ewing's Sarcoma) [31] = test: as above
Procedure, shortened: as §1

U251 (Low Grade Glioma) [32] = test: as above
Procedure, shortened: as §1

[33] = tested on: KYSE-180 (Esophageal Squamous Cell Carcinoma); test: as above
Procedure, shortened: as §1

CHP-212 (Neuroblastoma) [34] = test: as above
Procedure, shortened: as §1

[35] = tested on: MOLT-16 (T-Lymphoblastic Leukemia); test: as above
Procedure, shortened: as §1

[36] = tested on: EVSA-T (Breast Carcinoma); test: as above
Procedure, shortened: as §1

[37] = tested on: SU-DHL-8 (B-Cell Non-Hodgkin's Lymphoma); test: as above
Procedure, shortened: as §1

[38] = tested on: COLO-678 (Colorectal Carcinoma); test: as above
Procedure, shortened: as §1

[39] = tested on: P12-ICHIKAWA (T-Lymphoblastic Leukemia); test: as above
Procedure, shortened: as §1

[40] = tested on: HL-60 (Acute Myeloid Leukemia); test: as above
Procedure, shortened: as §1

MEL-JUSO (Melanoma) [41] = test: as above
Procedure, shortened: as §1

[42] = tested on: PANC-08-13 (Pancreatic Carcinoma); test: as above
Procedure, shortened: as §1

LN-18 (Glioblastoma) [43] = test: as above
Procedure, shortened: as §1

[44] = tested on: KARPAS-45 (T-Lymphoblastic Leukemia); test: as above
Procedure, shortened: as §1
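Wherever Bliss excess, mean over the matrix is given: after 72 h of two-drug dosing.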

## C[C@@H](c1ccc2nccn2c1)n1nnc2ncc(-c3cnn(C)c3)nc21 [Savolitinib] + CN(CC[C@H](CSC1=CC=CC=C1)NC2=C(C=C(C=C2)S(=O)(=O)NC(=O)C3=CC=C(C=C3)N4CCC(CC4)[C@H](C5=CC=CC=C5C6=CC=C(C=C6)Cl)O)S(=O)(=O)C(F)(F)F)CCO [AZD4320] (first compound max 1 µM, 7x7, partner max 1 µM)
[1]
  combination Emax: 0.0682
[2]
  combination Emax: 0.591
[3]
  combination Emax: 0.495
[4]
  combination Emax: 0.184
[5]
  combination Emax: 0.268
[6]
  combination Emax: 0.139
[7]
  combination Emax: 0.427
[8]
  combination Emax: 0.225
TC-71 (Ewing's Sarcoma) [9]
  combination Emax: 0.585
U251 (Low Grade Glioma) [10]
  combination Emax: 0.176
[11]
  combination Emax: 0.13
CHP-212 (Neuroblastoma) [12]
  combination Emax: 0.178
[13]
  combination Emax: 1
[14]
  combination Emax: 0.248
[15]
  combination Emax: 0.932
[16]
  combination Emax: 0.226
[17]
  combination Emax: 1
[18]
  combination Emax: 0.856
MEL-JUSO (Melanoma) [19]
  combination Emax: 0.257
[20]
  combination Emax: 0.394
LN-18 (Glioblastoma) [21]
  combination Emax: 0.163
[22]
  combination Emax: 0.976
[23]
  Bliss excess: -0.0414
[24]
  Bliss excess: -0.0432
[25]
  Bliss excess: -0.0713
[26]
  Bliss excess: 0.0315
[27]
  Bliss excess: -0.0201
[28]
  Bliss excess: -0.0156
[29]
  Bliss excess: -0.0312
[30]
  Bliss excess: -0.0726
TC-71 (Ewing's Sarcoma) [31]
  Bliss excess: -0.0266
U251 (Low Grade Glioma) [32]
  Bliss excess: -0.0546
[33]
  Bliss excess: -0.0161
CHP-212 (Neuroblastoma) [34]
  Bliss excess: -0.0613
[35]
  Bliss excess: -0.0222
[36]
  Bliss excess: 0.0099
[37]
  Bliss excess: 0.0282
[38]
  Bliss excess: -0.0766
[39]
  Bliss excess: -0.0097
[40]
  Bliss excess: -0.0536
MEL-JUSO (Melanoma) [41]
  Bliss excess: -0.0487
[42]
  Bliss excess: -0.0588
LN-18 (Glioblastoma) [43]
  Bliss excess: -0.0406
[44]
  Bliss excess: -0.0289
